Starred links: 1 amine or outer side, 2 acyl side, 3 side chain; linkers in the order of their positions; H or OH if unused. Positions of bridges follow the written chain, without caps; N, C: chain ends. Non-standard residues stand in square brackets, D forms with d. Residues, ends and D or L forms follow the SMILES beside them. Chains are numbered I, II in the order given. Actinocin(9to1) = Cc1c2oc3c(C)ccc(C(=O)[*:1])c3nc-2c(C(=O)[*:2])c(N)c1=O; NMeV = CN[C@H](C(=O)O)C(C)C; Sar = CNCC(=O)O
System: IL1α release from NIH 3T3 cell transfectants
Test: Heat shock-induced release of IL1α from NIH 3T3 cell transfectants (immunoblot of conditioned media)
Format: cell-based, human
Conditions: actinomycin D 10 μg/ml
Description: FIG. 5, comprising FIGS. 5A and 5B, depict the involvement of Cu^2+ in IL1α release. FIG. 5A is an image depicting results obtained using NIH 3T3 cells stably transfected with mIL1α-βGal. The cells were incubated for 18 hours at 37 C in the absence and presence of the Cu^2+ chelator, tetrathiomolybdate (TTM) as indicated and the untreated and treated cells either maintained at 37 C or subjected to heat shock as described in FIG. 3. The conditioned medium was evaluated for IL1α-βGal release by IL1α immunoblot analysis, and cell lysates from TTM-treated cells were used to monitor the intracellular level of IL1α-βGal expression. […] FIG. 5B is an image depicting release of IL1α-βGal in myc-S100A13 and IL1α-βGal NIH 3T3 cell cotransfectants and in insert-less vector and mIL1α-βGal NIH 3T3 cell transfectants in the presence and absence actinomycin D (10 μg/ml), as indicated, in response to heat shock. Conditioned media were processed and evaluated for IL1α-βGal immunoblot analysis as described in Tarantini et al. (2001).
Stable NIH 3T3 cell transfectants were generated accordingly with the following cDNA constructs cloned into pMEXneo (Tarantini, et al. 2001; Tarantini, et al. 1995; Tarantini, et al. 1998; LaVallee, et al. 1998; Carreira, et al. 1998; Landriscina, et al., 2001): human S100A13 with an amino-terminal fusion to a 6 Myc Tag (Myc-S100A13) (Landriscina, et al., 2001); human Myc-S100A13ΔBR (Landriscina, et al., 2001); human mIL1α (residues 113-271); human mIL1α with a carboxy-terminal fusion to a βGalactosidase tag (mIL1α-βGal) (Tarantini, et al. 2001); and pIL1α (residues 1-271) with a carboxy-terminal fusion to βGalactosidase (pIL1α-βGal) (Tarantini, et al. 2001). Recombinant human mIL1α was provided by Hoffmann-LaRoche. Recombinant human S100A13, as well as S100A13ΔBR, a S100A13 construct with the basic residue rich domain (residues 88 to 98) deleted, were generated as previously described (Landriscina, et al., 2001).
NIH 3T3 cell transfectants were grown to 70-80% confluency and prior to temperature stress, the cells were washed with serum-free DMEM. The heat shock was performed as previously described (Tarantini et al., 1995) in serum-free DMEM for 110 min at 42° C. Control cultures were incubated at 37° C. in serum-free DMEM. […] Immunoprecipitated and eluted proteins were resolved by 8% and 12% acrylamide SDS-PAGE, respectively, and evaluated by either IL1α (Tarantini, et al. 2001) or Myc (Landriscina, et al., 2001) immunoblot analysis. […] The effects of actinomycin D (Sigma Chemical Co., St. Louis, Mo.), cyclohexamide (Sigma) and tetrathiomolybdate (Sigma-Aldrich) on IL1α release were evaluated as previously reported (LaVallee et al., 1998).

Cc1c2oc3c(C)ccc(C(=O)N[C@@H]4C(=O)N[C@H](C(C)C)C(=O)N5CCC[C@H]5C(=O)N(C)CC(=O)N(C)[C@@H](C(C)C)C(=O)O[C@@H]4C)c3nc-2c(C(=O)N[C@@H]2C(=O)N[C@H](C(C)C)C(=O)N3CCC[C@H]3C(=O)N(C)CC(=O)N(C)[C@@H](C(C)C)C(=O)O[C@@H]2C)c(N)c1=O [actinomycin D] (I: T[dV]P[Sar][NMeV] / II: T[dV]P[Sar][NMeV]; ester I:1-I:C, II:1-II:C; linker I:N-II:N via Actinocin(9to1))
repression of export of IL1α-βGal in response to heat shock (Myc-S100A13 and IL1α-βGal NIH 3T3 cell cotransfectants): unable to repress | repression of release of IL1α-βGal in response to heat shock (insert-less vector and IL1α-βGal NIH 3T3 cell cotransfectants): able to repress
